Experimental data reported in patent US12037415B2, “Peptide and pharmaceutical composition for treating an eye disease comprising the same as an active pharmaceutical ingredient” (YuYu Pharma, Inc., priority 2017, dated 2024).
Starred links: 1 amine or outer side, 2 acyl side, 3 side chain; linkers in the order of their positions; H or OH if unused. Non-standard residues stand in square brackets, D forms with d. Residues, ends and D or L forms follow the SMILES beside them. ξ: configuration not given here. X1 = O=C([C@H](CCCCO)N[*:1])[*:2]; Hyp = O=C(O)[C@@H]1C[C@@H](O)CN1; Thr(3ξ) = CC(O)[C@H](N)C(=O)O

How the values were obtained:
[1] = tested on: rats with dry eye syndrome (extraorbital lacrimal gland excision, ELGE); experiment: Amount of tear secretion (Schirmer test, cobalt chloride paper) in rats with ELGE-induced dry eye syndrome; format: in vivo, rat; conditions: 0.3% solution (DS 3%), administration for 14 days
From the text: (§1) In order to evaluate the eye protection effect on dry eye syndrome by YDE-001 to YDE-028 prepared in Working Example 1, a total of 320 Sprague-Dawley-type male rats (OrientBio, Seungnam, Korea) were adapted for 7 days. Thereafter, dry eye syndrome was induced in 264 test rats through extraorbital lacrimal gland excision (hereinafter, ELGE). 8 test rats without the eye abnormality were subjected to a sham operation as a control group.
(§2) The rats were systemically anesthetized by inhaling a mixed gas of 2% to 3% of isoflurane (Hana Pharm. Co., Hwasung, Korea), 70% of N2O, and 28.6% of O2 using a rodent anesthesia machine (Surgivet, Waukesha, Wis., USA) and a ventilator (Model 687, Harvard Apparatus, Cambridge, UK). Thereafter, the extraorbital lacrimal gland located in the subdermal area above the masseter muscle and under the optic nerve was excised through a transverse incision in a size of 10 mm on the anterior part of the left ear tragus. The skin was sutured by a general method. […] After 6 days following the ELGE operation, confirmation was performed through the Schirmer test by measuring the amount of tear secretion whether dry eye syndrome had been induced. Meanwhile, each rat of the control group with the sham operation was checked for the presence and location of the extraorbital lacrimal gland through a skin incision, and the skin was then sutured without the excision thereof (FIG. 134).
(§3) In addition, in order to evaluate the eye protection effect on dry eye syndrome by YDE-029 to YDE-043 prepared in Working Example 1, a total of 200 Sprague-Dawley-type male rats (OrientBio, Seungnam, Korea) were adapted for 7 days. Dry eye syndrome was induced in 165 test rats through the ELGE. 8 test rats without the eye abnormality were subjected to the sham operation as a control group. The ELGE was carried out as described above.
(§4) For YDE-001 to YDE-028, YY-102 and the 28 YDE-series were each dissolved in physiological saline at a concentration of 3 mg/ml and administered at a dose of 5 μl/eye at 9:30 am and 3:30 pm daily for 14 days after 7 days from the ELGE operation for a total of 28 times. The DS solution was dissolved in physiological saline at a concentration of 30 mg/ml and administered at a dose of 5 μl/eye twice a day for 14 days after 7 days from the ELGE operation for a total of 28 times. For the sham control and the ELGE control groups, the same stimulation as the administration was applied. In order to prevent excessive eye dryness, the same volume of physiological saline was applied in the same manner in place of the test substances.
as §4, with “Further, For YDE-029” for “For YDE-001”, “Further, For YDE-029 to YDE-043,” for “For YDE-001 to YDE-028,”, “YDE-029 to YDE-043, YY-102 and” for “YDE-001 to YDE-028, YY-102 and”, “and the 15 YDE-series were” for “and the 28 YDE-series were”, “the test substances (FIG. 137).” for “the test substances.”
After 6 days from the ELGE surgery, the changes in the amount of tear secretion were measured at day 7 and day 14 after the administration of YDE-001 to YDE-043. The amount of tear secretion was measured by the […] travel distance of tears absorbed by cobalt chloride paper in a size of 1×15 mm (Toyo Roshi Kaisha, Japan).
The cobalt chloride paper was placed in the lateral canthus of a rat for 60 seconds to absorb tears (FIG. 139). The length of the area absorbed from the corner of the cobalt chloride paper was measured with an electronic digital caliper (Mytutoyo, Tokyo, Japan) (FIG. 138).

[2] = tested on: cornea of rats with dry eye syndrome (ELGE); experiment: Corneal permeability of fluorescent dye (corneal damage) in rats with ELGE-induced dry eye syndrome; format: in vivo, rat; conditions: 0.3% solution, day 14 after the administration
From the text: as §1, §2, §3, §4
as §4, with “Further, For YDE-029” for “For YDE-001”, “Further, For YDE-029 to YDE-043,” for “For YDE-001 to YDE-028,”, “YDE-029 to YDE-043, YY-102 and” for “YDE-001 to YDE-028, YY-102 and”, “and the 15 YDE-series were” for “and the 28 YDE-series were”, “the test substances (FIG. 137).” for “the test substances.”
After YDE-001 to YDE-028 were each administered to the eyes […], the changes in the corneal permeability were checked.
In order to measure the corneal permeability, Zolethyl 50™ (Virbac Lab., Carros, France), an animal anesthetic, was intraperitoneally injected at a dose of 25 mg/kg. Thereafter, saline containing a 1% (v/v) fluorescent solution (fluorescein sodium salt, Tokyo Kasei Kogyo Co., Tokyo, Japan) was applied to the eyes at a dose of 5 μl/eye. The eyes thus treated were closed and fixed with a tape. After 1 hour, the remaining fluorescent solution was removed using a cotton swab (FIG. 142). […]

[3] = Stability in aqueous solution, amount of related substances under long-term storage conditions; format: physicochemical; conditions: glass vial, 25° C., 75% RH
Protocol: In order to confirm the stability of each test substance in an aqueous solution, […] of each sample was dissolved in 1 ml of water to a concentration of 1 mg/ml, which was then charged to a glass vial, plugged with a rubber cap, sealed with an aluminum cap, and stored under long-term storage conditions (25° C., 75% RH). The stability of the test substance was evaluated by measuring the amount of related substances at the time of one week, two weeks, four weeks, eight weeks, and twelve weeks under the long-term storage conditions.

[4] = study of YDE-029 to YDE-043 (Table 17)
[5] = study of YDE-001 to YDE-028 (Table 16)

SMILES	Amount of tear secretion as compared with the ELGE control group ([1]; study of YDE-029 to YDE-043)	Permeability of fluorescent dye (%) [2, 4]	Amount of tear secretion as compared with the ELGE control group ([1]; study of YDE-001 to YDE-028)	Permeability of fluorescent dye (%) [2, 5]	Amount of related substances (%; after 12 weeks) [3]
CC(C)C[C@H](NC(=O)CNC(=O)[C@H](CC(C)C)NC(=O)[C@H](CCC(N)=O)NC(=O)CNC(=O)[C@@H]1C[C@@H](O)CN1)C(=O)N[C@@H](C)C(=O)NCC(=O)N1CCC[C@H]1C(=O)N[C@@H](Cc1ccc(O)cc1)C(=O)O [YDE-029, HyP-Gly-Gln-Leu-Gly-Leu-Ala-Gly-Pro-Tyr] (H-[Hyp]GQLGLAGPY-OH)	did not show any significant changes	63.45 ± 11.57%			
CC(C)C[C@H](NC(=O)CNC(=O)[C@H](CC(C)C)NC(=O)[C@H](CCC(N)=O)NC(=O)CNC(=O)[C@@H]1C[C@@H](O)CN1)C(=O)N[C@@H](C)C(=O)NCC(=O)N1CCC[C@H]1C(=O)N[C@@H](CCCCO)C(=O)O [YDE-033, HyP-Gly-Gln-Leu-Gly-Leu-Ala-Gly-Pro-Nle(6-OH)] (H-[Hyp]GQLGLAGP[X1]-OH)	did not show any significant changes	60.55 ± 21.22%			
O=c1ccn([C@@H]2O[C@H](COP(=O)(O)OP(=O)(O)OP(=O)(O)OP(=O)(O)OC[C@H]3O[C@@H](n4ccc(=O)[nH]c4=O)[C@H](O)[C@@H]3O)[C@@H](O)[C@H]2O)c(=O)[nH]1 [DS, diquafosol sodium, reference compound]	increased		increased		
CC(C)C[C@H](NC(=O)CNC(=O)[C@H](CC(C)C)NC(=O)[C@H](CCC(N)=O)NC(=O)CNC(=O)[C@@H]1C[C@@H](O)CN1)C(=O)N[C@@H](C)C(=O)NCC(=O)N1CCC[C@H]1C(=O)N[C@@H](CCC(N)=O)C(=O)O [YDE-032, HyP-Gly-Gln-Leu-Gly-Leu-Ala-Gly-Pro-Gln] (H-[Hyp]GQLGLAGPQ-OH)	did not show any significant changes	58.90 ± 19.81%			
CC(C)C[C@H](NC(=O)[C@H](CO)NC(=O)[C@H](CC(=O)O)NC(=O)[C@H](CCC(N)=O)NC(=O)CNC(=O)[C@@H]1C[C@@H](O)CN1)C(=O)N[C@@H](C)C(=O)NCC(=O)N1CCC[C@H]1C(=O)N[C@@H](CCCCN)C(=O)O [YDE-023, HyP-Gly-Gln-Asp-Ser-Leu-Ala-Gly-Pro-Lys] (H-[Hyp]GQDSLAGPK-OH)				26.51 ± 8.18%	30.66%
CC(C)C[C@H](NC(=O)[C@@H]1CCCN1C(=O)CNC(=O)[C@H](C)NC(=O)[C@H](CC(C)C)NC(=O)CNC(=O)[C@H](CC(C)C)NC(=O)[C@H](CCC(N)=O)NC(=O)CNC(=O)[C@@H]1C[C@@H](O)CN1)C(=O)O [YDE-030, HyP-Gly-Gln-Leu-Gly-Leu-Ala-Gly-Pro-Leu] (H-[Hyp]GQLGLAGPL-OH)	did not show any significant changes	30.60 ± 13.61%			
CC(C)C[C@H](NC(=O)CNC(=O)[C@H](CCC(N)=O)NC(=O)[C@H](CCC(N)=O)NC(=O)CNC(=O)[C@@H]1C[C@@H](O)CN1)C(=O)N[C@@H](C)C(=O)NCC(=O)N1CCC[C@H]1C(=O)N[C@@H](CCCCN)C(=O)O [YDE-003, HyP-Gly-Gln-Gln-Gly-Leu-Ala-Gly-Pro-Lys] (H-[Hyp]GQQGLAGPK-OH)				40.45 ± 6.46%	6.86%
CC(C)C[C@H](NC(=O)CNC(=O)[C@H](CC(C)C)NC(=O)[C@H](CCC(N)=O)NC(=O)CNC(=O)[C@@H]1C[C@@H](O)CN1)C(=O)N[C@@H](C)C(=O)O [YDE-041, HyP-Gly-Gln-Leu-Gly-Leu-Ala] (H-[Hyp]GQLGLA-OH)	did not show any significant changes	46.38 ± 26.65%			
CC(C)C[C@H](NC(=O)[C@@H](NC(=O)[C@H](CC(=O)O)NC(=O)[C@H](CCC(N)=O)NC(=O)CNC(=O)[C@@H]1C[C@@H](O)CN1)C(C)O)C(=O)N[C@@H](C)C(=O)NCC(=O)N1CCC[C@H]1C(=O)N[C@@H](CCCCN)C(=O)O (stereo partly drawn) [YDE-024, HyP-Gly-Gln-Asp-Thr-Leu-Ala-Gly-Pro-Lys] (H-[Hyp]GQD[Thr(3ξ)]LAGPK-OH)				30.63 ± 10.41%	20.59%
CC(C)C[C@H](NC(=O)CNC(=O)[C@H](Cc1cnc[nH]1)NC(=O)[C@H](CCC(N)=O)NC(=O)CNC(=O)[C@@H]1C[C@@H](O)CN1)C(=O)N[C@@H](C)C(=O)NCC(=O)N1CCC[C@H]1C(=O)N[C@@H](CCCCN)C(=O)O [YDE-004, HyP-Gly-Gln-His-Gly-Leu-Ala-Gly-Pro-Lys] (H-[Hyp]GQHGLAGPK-OH)				35.05 ± 11.74%	2.11%
CC(C)C[C@H](NC(=O)CNC(=O)[C@H](CC(C)C)NC(=O)[C@H](CCC(N)=O)NC(=O)CNC(=O)[C@@H]1C[C@@H](O)CN1)C(=O)N[C@@H](C)C(=O)NCC(=O)N1CCC[C@H]1C(=O)N[C@@H](CCCCN)C(=O)O [YDE-011, HyP-Gly-Gln-Leu-Gly-Leu-Ala-Gly-Pro-Lys] (H-[Hyp]GQLGLAGPK-OH)				18.11 ± 11.61%	3.83%
CC(C)C[C@H](NC(=O)CNC(=O)[C@H](CCCCN)NC(=O)[C@H](CCC(N)=O)NC(=O)CNC(=O)[C@@H]1C[C@@H](O)CN1)C(=O)N[C@@H](C)C(=O)NCC(=O)N1CCC[C@H]1C(=O)N[C@@H](CCCCN)C(=O)O [YDE-005, HyP-Gly-Gln-Lys-Gly-Leu-Ala-Gly-Pro-Lys] (H-[Hyp]GQKGLAGPK-OH)				37.98 ± 11.53%	2.97%
CC(C)C[C@H](NC(=O)CNC(=O)[C@H](Cc1c[nH]c2ccccc12)NC(=O)[C@H](CCC(N)=O)NC(=O)CNC(=O)[C@@H]1C[C@@H](O)CN1)C(=O)N[C@@H](C)C(=O)NCC(=O)N1CCC[C@H]1C(=O)N[C@@H](CCCCN)C(=O)O [YDE-014, HyP-Gly-Gln-Trp-Gly-Leu-Ala-Gly-Pro-Lys] (H-[Hyp]GQWGLAGPK-OH)				31.15 ± 10.87%	6.72%
CC(C)C[C@H](NC(=O)CNC(=O)[C@H](CC(N)=O)NC(=O)[C@H](CCC(N)=O)NC(=O)CNC(=O)[C@@H]1C[C@@H](O)CN1)C(=O)N[C@@H](C)C(=O)NCC(=O)N1CCC[C@H]1C(=O)N[C@@H](CCCCN)C(=O)O [YDE-002, HyP-Gly-Gln-Asn-Gly-Leu-Ala-Gly-Pro-Lys] (H-[Hyp]GQNGLAGPK-OH)				38.26 ± 11.25%	4.93%
